# Literature values in patent publication US20080317845A1, “Duloxetine Formulation” (priority 2007, published 2008).
# Counter-ions that a name gives are not always drawn.
smiles,measurement,value
"CNCC[C@H](Oc1cccc2ccccc12)c1cccs1 [duloxetine, (+)-(S)-N-methyl-y-(1-naphthyloxy)-2-thiophenepropylamine hydrochloride]",stability in acidic media,unstable
